Values of other authors in US20250311736A1, “SEED TREATMENT METHODS FOR INCREASING YIELD IN CROP PLANTS” (BAYER AKTIENGESELLSCHAFT, priority 2021, published 2025).

Test system: plants
Conditions: Tavares et al., 2011; Suwitchayanon et al., 2019

For `O=C(/C=C/C=C/c1ccc2c(c1)OCO2)N1CCCCC1` [piperine], the “phytotoxic effect on plants (inhibits their growth)” value is listed as “phytotoxic effect”.
